The target in test [1] is T1, Calpain-1 catalytic subunit (Sus scrofa, UniProt P35750).
T1 sequence (P35750 whole entry): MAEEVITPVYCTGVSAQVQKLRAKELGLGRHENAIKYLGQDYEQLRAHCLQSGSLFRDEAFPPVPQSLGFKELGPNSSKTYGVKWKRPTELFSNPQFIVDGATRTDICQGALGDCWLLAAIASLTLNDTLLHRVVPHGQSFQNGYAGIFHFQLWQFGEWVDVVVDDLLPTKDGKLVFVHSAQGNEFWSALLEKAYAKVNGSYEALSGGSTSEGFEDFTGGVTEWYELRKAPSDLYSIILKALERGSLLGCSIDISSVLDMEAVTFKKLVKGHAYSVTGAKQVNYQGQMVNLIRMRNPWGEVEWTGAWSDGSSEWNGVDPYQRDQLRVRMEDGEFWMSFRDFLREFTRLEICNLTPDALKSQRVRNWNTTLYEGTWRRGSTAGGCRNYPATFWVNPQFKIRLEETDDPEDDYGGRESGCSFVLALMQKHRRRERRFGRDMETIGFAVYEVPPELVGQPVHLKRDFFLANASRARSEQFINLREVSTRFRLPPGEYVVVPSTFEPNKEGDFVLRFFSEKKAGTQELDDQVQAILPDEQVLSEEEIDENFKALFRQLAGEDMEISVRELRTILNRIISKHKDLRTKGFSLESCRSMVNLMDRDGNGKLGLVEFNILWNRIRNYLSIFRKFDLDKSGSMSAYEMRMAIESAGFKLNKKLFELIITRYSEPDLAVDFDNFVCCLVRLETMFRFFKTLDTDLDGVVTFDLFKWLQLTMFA
As to the kind of experiment: Inhibition of pig erythrocyte mu-calpain.

For test [2], the target named is Cathepsin B (Homo sapiens, UniProt P07858). As to the kind of experiment: Inhibition of human liver cathepsin B.
The nature of test [3]: Selectivity ratio of Ki for human liver cathepsin B to Ki for pig erythrocyte mu-calpain.

The structures appear in SMILES notation. Where a SMILES comes first, the peptide text is derived from it. [ ]: non-standard residue; d: D form. The star is where a group is joined. Hydrocinnamoyl = O=C(CCc1ccccc1)*; Nle = CCCC[C@H](N)C(=O)O; Ac5c = NC1(C(=O)O)CCCC1; Deg = CCC(N)(CC)C(=O)O

For orientation: Ki means a measure of affinity in units of concentration, obtained from inhibition or displacement. A low value points to higher affinity.

As to `CCCC[C@@H](C=O)NC(=O)[C@H](CC(C)C)NC(=O)[C@H](CC(C)C)NC(C)=O` (Ac-Leu-Leu-[Nle]-aldehyde), the Ki is 190 nM in test [1] and 150 nM in test [2].
On to `O=C[C@H](Cc1ccccc1)NC(=O)C1(NC(=O)CCc2ccccc2)CCCC1` (Hydrocinnamoyl-[Ac5c]-Phe-aldehyde), for which the Ki in test [1] came out at 1940 nM; in test [2], 880 nM. Further, the Selectivity ratio in test [3] was 0.45.
For the compound `CCC(CC)(NC(=O)CCc1ccccc1)C(=O)N[C@H](C=O)Cc1ccccc1` (Hydrocinnamoyl-[Deg]-Phe-aldehyde), the values for the Ki in test [1] and in test [2] were 80 nM and 2910 nM, respectively. Besides, in test [3], the Selectivity ratio is 36.4.
